# Measured values from patent US5294701A, “Anthracycline compounds and intermediates” (Pharmachemie B.V., priority 1990, dated 1994).
# Counter-ions that a name gives are not always drawn. Like-named read-outs stand apart in the source and are kept apart here.
# Columns and labels:
# Type in all cases: cell-based
# [1] = tested on: MCF-7 mammary carcinoma cells (M-cells); test: Inhibition of growth of human tumour cell line MCF-7 in vitro (PIT method of van Lambalgen and Lelieveld)
# Experimental: (§1) A number of compounds were examined with the following human tumour cell lines according to the method of R. van Lambalgen and P. Lelieveld, "The PIT method: and automated in vitro technique for drug toxicity testing", Invest. New Drugs 5, 161-165, 1987.
# MCF-7 mammary carcinoma cells (M-cells)
# (§2) The cell lines where maintained in a continuous logarithmic culture in Dulbeco's medium supplemented with 10% fetal calf serum, penicillin (100 IU/ml) and streptomycin (100 μg/ml).
# (§3) The ID50 values of the above compounds, expressed in ng/ml, where determined according to the abovementioned method of van Lambalgen and Lelieveld. The ID50 value is the amount which inhibits 50% of the cell growth.
# [2] = tested on: IgR-37 melanoma cells (Z-cells); test: Inhibition of growth of human tumour cell line IgR-37 in vitro (PIT method of van Lambalgen and Lelieveld)
# Experimental: as §1
# IgR-37 melanoma cells (Z-cells)
# as §2, §3
# [3] = tested on: A 204 rhabdomyosarcoma (A-cells); test: Inhibition of growth of human tumour cell line A 204 in vitro (PIT method of van Lambalgen and Lelieveld)
# Experimental: as §1
# A 204 rhabdomyosarcoma (A-cells)
# as §2, §3
# [4] = tested on: T 24 bladder carcinoma cells (T-cells); test: Inhibition of growth of human tumour cell line T 24 in vitro (PIT method of van Lambalgen and Lelieveld)
# Experimental: as §1
# T 24 bladder carcinoma cells (T-cells)
# as §2, §3
# [5] = tested on: WiDr colon tumour cells (W-cells); test: Inhibition of growth of human tumour cell line WiDr in vitro (PIT method of van Lambalgen and Lelieveld); settings: read-out: ID50 values in ng/ml, WiDr (amount which inhibits 50% of the cell growth)
# Experimental: as §1
# WiDr colon tumour cells (W-cells)
# as §2, §3
# [6] = MCF7, MCF-7 mammary carcinoma cells, read-out: ID50 values in ng/ml, MCF-7 (amount which inhibits 50% of the cell growth)
# [7] = IgR-37 melanoma cells, read-out: ID50 values in ng/ml, IgR-37 (amount which inhibits 50% of the cell growth)
# [8] = A204, A 204 rhabdomyosarcoma cells, read-out: ID50 values in ng/ml, A204 (amount which inhibits 50% of the cell growth)
# [9] = T24, T 24 bladder carcinoma cells, read-out: ID50 values in ng/ml, T24 (amount which inhibits 50% of the cell growth)
# [10] = MCF7, read-out: ID50 values in ng/ml, MCF-7 (amount which inhibits 50% of the cell growth)
# [11] = IGR-37, read-out: ID50 values in ng/ml, IgR-37 (amount which inhibits 50% of the cell growth)
# [12] = A204, read-out: ID50 values in ng/ml, A204 (amount which inhibits 50% of the cell growth)
# [13] = T24, read-out: ID50 values in ng/ml, T24 (amount which inhibits 50% of the cell growth)
structure (smiles),measurement,setting,value
CC(=O)C1(O)Cc2c(O)c3c(c(O)c2C(O[C@H]2C[C@H](N)[C@H](O)[C@H](C)O2)C1)C(=O)c1cc(C)cnc1C3=O (some centres unmarked) [HRM11],IC50,[1]; [6],67 ng/mL
same,IC50,[2]; [7],77 ng/mL
same,IC50,[3]; [8],45 ng/mL
same,IC50,[4]; [9],173 ng/mL
same,IC50,[5]; WiDr colon tumour cells,139 ng/mL
C#C[C@]1(O)CC2=C(C(=O)c3c(O)ccc(O)c3C2=O)[C@@H](O[C@H]2C[C@H](N)[C@H](O)[C@H](C)O2)C1 [HRM16],IC50,[1]; [6],338 ng/mL
same,IC50,[2]; [7],1940 ng/mL
same,IC50,[3]; [8],280 ng/mL
same,IC50,[4]; [9],1260 ng/mL
same,IC50,[5]; WiDr colon tumour cells,2120 ng/mL
CC(=O)C1(O)Cc2c(O)c3c(c(O)c2C(O[C@H]2C[C@H](N)[C@H](O)[C@H](C)O2)C1)C(=O)c1ncc(C)cc1C3=O (some centres unmarked) [HRM15],IC50,[1]; [6],334 ng/mL
same,IC50,[2]; [7],459 ng/mL
same,IC50,[3]; [8],171 ng/mL
same,IC50,[4]; [9],949 ng/mL
same,IC50,[5]; WiDr colon tumour cells,779 ng/mL
C[C@@H]1O[C@@H](O[C@H]2C[C@](O)(C#C[Si](C)(C)C)Cc3c(O)c4c(c(O)c32)C(=O)c2ccccc2C4=O)C[C@H](NC(=O)C(F)(F)F)[C@@H]1O [HRM03],IC50,[1]; [10],151 ng/mL
same,IC50,[2]; [11],146 ng/mL
same,IC50,[3]; [12],97 ng/mL
same,IC50,[4]; [13],444 ng/mL
same,IC50,[5]; WiDr,156 ng/mL
C#C[C@]1(O)Cc2c(O)c3c(c(O)c2[C@@H](O[C@H]2C[C@H](NC(=O)C(F)(F)F)[C@H](O)[C@H](C)O2)C1)C(=O)c1ccccc1C3=O [HRM04],IC50,[1]; [6],14 ng/mL
same,IC50,[2]; [7],18 ng/mL
same,IC50,[3]; [8],14 ng/mL
same,IC50,[4]; [9],75 ng/mL
same,IC50,[5]; WiDr colon tumour cells,43 ng/mL
"COc1cccc2c1C(=O)c1c(O)c3c(c(O)c1C2=O)C[C@@](O)(C(C)=O)C[C@@H]3O[C@H]1C[C@H](N)[C@H](O)[C@H](C)O1 [Daunomycin.HCl, Daunomycin, reference compound]",IC50,[1]; [10],1 ng/mL
same,IC50,[2]; [11],1 ng/mL
same,IC50,[3]; [12],1 ng/mL
same,IC50,[4]; [13],4 ng/mL
same,IC50,[5]; WiDr,3 ng/mL
CC(=O)[C@]1(O)CC2=C(C(=O)c3c(O)ccc(O)c3C2=O)[C@@H](O[C@H]2C[C@H](N)[C@H](O)[C@H](C)O2)C1 [HRM13],IC50,[1]; [6],542 ng/mL
same,IC50,[2]; [7],2440 ng/mL
same,IC50,[3]; [8],729 ng/mL
same,IC50,[4]; [9],1050 ng/mL
same,IC50,[5]; WiDr colon tumour cells,1420 ng/mL
"COc1cccc2c1C(=O)c1c(O)c3c(c(O)c1C2=O)C[C@@](O)(C(=O)CO)C[C@@H]3O[C@H]1C[C@H](N)[C@H](O)[C@H](C)O1 [Adramycin.HCl, Adriamycin, reference compound]",IC50,[1]; [10],6 ng/mL
same,IC50,[2]; [11],6 ng/mL
same,IC50,[3]; [12],4 ng/mL
same,IC50,[4]; [13],18 ng/mL
same,IC50,[5]; WiDr,16 ng/mL
C#C[C@]1(O)Cc2c(O)c3c(c(O)c2[C@@H](O[C@H]2C[C@H](N)[C@H](O)[C@H](C)O2)C1)C(=O)c1c(OC)cccc1C3=O [HRM12],IC50,[1]; [6],39 ng/mL
same,IC50,[2]; [7],63 ng/mL
same,IC50,[3]; [8],21 ng/mL
same,IC50,[4]; [9],140 ng/mL
same,IC50,[5]; WiDr colon tumour cells,87 ng/mL
"CC(=O)[C@@]1(O)Cc2c(O)c3c(c(O)c2[C@H](O[C@H]2C[C@H](N)[C@H](O)[C@H](C)O2)C1)C(=O)c1ccccc1C3=O [HRM09, α-7.9-bis-epi-4-demethoxydaunomycin, reference compound]",IC50,[1]; [6],745 ng/mL
same,IC50,[2]; [7],618 ng/mL
same,IC50,[3]; [8],302 ng/mL
same,IC50,[4]; [9],1140 ng/mL
same,IC50,[5]; WiDr colon tumour cells,501 ng/mL
"COc1cc([C@@H]2c3cc4c(cc3[C@@H](O[C@@H]3O[C@@H]5CO[C@@H](C)O[C@H]5[C@H](O)[C@H]3O)[C@H]3COC(=O)[C@H]23)OCO4)cc(OC)c1O [Etoposide, reference compound]",IC50,[1]; [10],187 ng/mL
same,IC50,[2]; [11],427 ng/mL
same,IC50,[3]; [12],91 ng/mL
same,IC50,[4]; [13],457 ng/mL
same,IC50,[5]; WiDr,624 ng/mL
C#C[C@@]1(O)Cc2c(O)c3c(c(O)c2[C@H](O[C@H]2C[C@H](N)[C@H](O)[C@H](C)O2)C1)C(=O)c1ccccc1C3=O [HRM10],IC50,[1]; [6],420 ng/mL
same,IC50,[2]; [7],469 ng/mL
same,IC50,[3]; [8],243 ng/mL
same,IC50,[4]; [9],728 ng/mL
same,IC50,[5]; WiDr colon tumour cells,372 ng/mL
C#C[C@]1(O)Cc2c(O)c3c(c(O)c2[C@@H](O[C@H]2C[C@H](N)[C@H](O)[C@H](C)O2)C1)C(=O)c1ccccc1C3=O [HRM01],IC50,[1]; [6],1 ng/mL
same,IC50,[2]; [7],2 ng/mL
same,IC50,[3]; [8],0.3 ng/mL
same,IC50,[4]; [9],2 ng/mL
same,IC50,[5]; WiDr colon tumour cells,4 ng/mL
